Measurements from ChEMBL document CHEMBL1141299, “Hologram QSAR model for the prediction of human oral bioavailability” (Bioorg Med Chem, 2007).

Test: Oral bioavailability in human
Settings: in vivo

| SMILES | bioavailability |
| --- | --- |
| CN1CCN(C(=O)O[C@H]2c3nccnc3C(=O)N2c2ccc(Cl)cn2)CC1 [ESZOPICLONE] | 80% |
| C=CCN1CC[C@]23c4c5ccc(O)c4O[C@H]2C(=O)CC[C@@]3(O)[C@H]1C5 [NALOXONE] | 2% |
| O=P1(N(CCCl)CCCl)NCCCO1 (stereo unspecified) [CYCLOPHOSPHAMIDE ANHYDROUS] | 74% |
| Cc1ccc(-c2nc3ccc(C)cn3c2CC(=O)N(C)C)cc1 [ZOLPIDEM] | 72% |
| CC(C)n1c(/C=C/[C@H](O)C[C@H](O)CC(=O)O)c(-c2ccc(F)cc2)c2ccccc21 [FLUVASTATIN] | 24% |
| NC(=O)c1ncn([C@@H]2O[C@H](CO)[C@@H](O)[C@H]2O)n1 [RIBAVIRIN] | 64% |
| Cc1c(OCC(F)(F)F)ccnc1C[S+]([O-])c1nc2ccccc2[nH]1 (stereo unspecified) [LANSOPRAZOLE] | 80% |
| CN1C(=O)[C@H](O)N=C(c2ccccc2Cl)c2cc(Cl)ccc21 [(S)-LORMETAZEPAM] | 75% |
| O=C(O)CCCc1ccc(N(CCCl)CCCl)cc1 [CHLORAMBUCIL] | 87% |
| O=C1CN=C(c2ccccc2)c2cc([N+](=O)[O-])ccc2N1 [NITRAZEPAM] | 78% |
| CCN[C@H](C)Cc1cccc(C(F)(F)F)c1 [LEVOFENFLURAMINE] | 89% |
| Cc1nnc2n1-c1ccc(Cl)cc1C(c1ccccc1Cl)=NC2 [TRIAZOLAM] | 44% |
| CN1CCN(C2=Nc3cc(Cl)ccc3Nc3ccccc32)CC1 [CLOZAPINE] | 55% |
| CNC(=O)Oc1ccc2c(c1)[C@]1(C)CCN(C)[C@@H]1N2C [PHYSOSTIGMINE] | 6% |
| C[C@]12C=CC(=O)N[C@@H]1CC[C@@H]1[C@@H]2CC[C@]2(C)[C@@H](C(=O)Nc3cc(C(F)(F)F)ccc3C(F)(F)F)CC[C@@H]12 [DUTASTERIDE] | 60% |
| CC[C@@]1(c2ccccc2)C(=O)NC(=O)N(C)C1=O [(R)-METHYLPHENOBARBITAL] | 73% |
| Cc1nc2n(c(=O)c1CCN1CCC(c3noc4cc(F)ccc34)CC1)CCCC2 [RISPERIDONE] | 70% |
| C[C@H](NC(C)(C)C)C(=O)c1cccc(Cl)c1 | 70% |
| O=C1Nc2ccc(Cl)cc2C(c2ccccc2Cl)=N[C@@H]1O [(R)-LORAZEPAM] | 93% |
| C[C@@H](N)Cc1cccc(C(F)(F)F)c1 | 85% |
| CCC(=O)C(C[C@@H](C)N(C)C)(c1ccccc1)c1ccccc1 [LEVOMETHADONE] | 92% |
| Cn1c(=O)c2[nH]cnc2n(C)c1=O.O [THEOPHYLLINE] | 98.8% |
| Oc1ccc2c3c1O[C@H]1[C@@H](O)CC[C@@]4(O)[C@@H](C2)N(CC2CCC2)CC[C@]314 [NALBUPHINE] | 11% |
| CC(C)=CCN1CC[C@]2(C)c3cc(O)ccc3C[C@H]1[C@H]2C [(+)-PENTAZOCINE] | 18% |

Same assay, conditions: in vivo, F

| SMILES | bioavailability |
| --- | --- |
| CCN1C[C@@H](CCN2CCOCC2)C(c2ccccc2)(c2ccccc2)C1=O [(S)-DOXAPRAM] | 61% |
| CN(C)CCc1c[nH]c2ccc(CS(=O)(=O)N3CCCC3)cc12 [ALMOTRIPTAN] | 70% |
| CC1(C)O[C@@H]2[C@@H](CO[C@@]3(COS(N)(=O)=O)OC(C)(C)O[C@@H]23)O1 [TOPIRAMATE] | 70% |
| CC[C@H]1OC(=O)[C@H](C)C(=O)[C@H](C)[C@@H](O[C@@H]2O[C@H](C)C[C@H](N(C)C)[C@H]2O)[C@](C)(OC)C[C@@H](C)C(=O)[C@H](C)[C@H]2N(CCCCn3cnc(-c4cccnc4)c3)C(=O)O[C@]12C [TELITHROMYCIN] | 57% |
| CC(C)NC[C@@H](O)c1ccc(NS(C)(=O)=O)cc1 [DEXSOTALOL] | 60% |
| CN(C)[C@@H]1C(O)=C(C(N)=O)C(=O)[C@@]2(O)C(O)=C3C(=O)c4c(O)cccc4[C@@](C)(O)[C@H]3[C@H](O)[C@@H]12 [OXYTETRACYCLINE] | 58% |
| COc1ccc(OC)c([C@@H](O)CNC(=O)CN)c1 [(R)-MIDODRINE] | 93% |
| Cc1onc(-c2c(F)cccc2Cl)c1C(=O)N[C@@H]1C(=O)N2[C@@H]1SC(C)(C)[C@@H]2C(=O)O [FLOXACILLIN] | 49% |
| Nc1ccn([C@@H]2CS[C@H](CO)O2)c(=O)n1 [LAMIVUDINE] | 86% |
| COc1ccc(OC)c([C@H](O)CNC(=O)CN)c1 [(S)-MIDODRINE] | 93% |
| Cc1[nH]cnc1CN1CCc2c(c3ccccc3n2C)C1=O [ALOSETRON] | 55% |
| C[C@H]1C[C@@H]2[C@H]([C@@H](O)C[C@@]3(C)[C@H]2CC[C@]3(O)C(=O)CO)[C@@]2(C)C=CC(=O)C=C12 [METHYLPREDNISOLONE] | 82% |
| O=C1NS(=O)(=O)c2ccccc21 [SACCHARIN] | 84% |
| O=C(NC[C@@H]1CCCCN1)c1cc(OCC(F)(F)F)ccc1OCC(F)(F)F | 95% |
| CNCCCC1c2ccccc2C=Cc2ccccc21 [PROTRIPTYLINE] | 85% |
| C[C@@H](N/C(=N/c1ccncc1)NC#N)C(C)(C)C | 57% |
| CC(C)Cc1ccc([C@H](C)C(=O)O)cc1 [DEXIBUPROFEN] | 80% |
| C#C[C@]1(O)CC[C@H]2[C@@H]3CCC4=CC(=O)CC[C@@H]4[C@H]3CC[C@@]21C [NORETHINDRONE] | 64% |
| C[C@]12C=CC(=O)C=C1CC[C@@H]1[C@@H]2C(=O)C[C@@]2(C)[C@H]1CC[C@]2(O)C(=O)CO [PREDNISONE] | 80% |

| SMILES | bioavailability |
| --- | --- |
| C=C1/C(=C\C=C2/CCC[C@]3(C)[C@@H](C(C)CCCC(C)(C)O)CC[C@@H]23)C[C@@H](O)C[C@@H]1O (single isomer, unassigned) [CALCITRIOL] | 61% |
| CC[C@@H](CO)NCCN[C@@H](CC)CO [ETHAMBUTOL] | 77% |
| CO/N=C1\CN(c2nc3c(cc2F)c(=O)c(C(=O)O)cn3C2CC2)CC1CN (stereo unspecified) [GEMIFLOXACIN] | 71% |
| Nc1ccc(S(=O)(=O)c2ccc(N)cc2)cc1 [DAPSONE] | 93% |
| CC1(C)S[C@@H]2[C@H](NC(=O)Cc3ccccc3)C(=O)N2[C@H]1C(=O)O [PENICILLIN G] | 22.5% |
| CC1=CC[C@H](C(C)(C)O)C[C@H]1O | 72% |
| CN1Cc2c(N)cccc2[C@H](c2ccccc2)C1 | 27% |
| Cc1cn([C@H]2C[C@H](N=[N+]=[N-])[C@@H](CO)O2)c(=O)[nH]c1=O [ZIDOVUDINE] | 64% |
| CCCc1nn(C)c2c(=O)[nH]c(-c3cc(S(=O)(=O)N4CCN(C)CC4)ccc3OCC)nc12 | 40% |
| N#Cc1ccc(C(c2ccc(C#N)cc2)n2cncn2)cc1 [LETROZOLE] | 99.9% |
| Cc1nnc(SCC2=C(C(=O)O)N3C(=O)[C@@H](NC(=O)Cn4cnnn4)[C@H]3SC2)s1 [CEFAZOLIN] | 90% |
| C[C@H](CN1CCN(CCOCCO)CC1)CN1c2ccccc2Sc2ccccc21 | 10% |
| CC[C@H](C)C(=O)O[C@H]1C[C@H](O)C=C2C=C[C@H](C)[C@H](CC[C@@H](O)C[C@@H](O)CC(=O)O)[C@H]21 [PRAVASTATIN] | 17% |
| CN(C)S(=O)(=O)c1ccc2c(c1)N(CCCN1CCC(CCO)CC1)c1ccccc1S2 [PIPOTIAZINE] | 26% |
| Cn1cc[nH]c1=S [METHIMAZOLE] | 93% |
| CCOC(=O)C1=C(C)NC(C)=C(C(=O)OC)[C@@H]1c1cccc([N+](=O)[O-])c1 [(S)-NITRENDIPINE] | 16% |
| CSc1ccc(C(=O)c2[nH]c(=O)[nH]c2C)cc1 [ENOXIMONE] | 53% |
| CC(=O)Oc1ccccc1C(=O)O [ASPIRIN] | 68% |
| Cc1cccc(OC[C@@H](O)CNC(C)C)c1 [(S)-TOLIPROLOL] | 90% |

| SMILES | bioavailability |
| --- | --- |
| CCC1=C(C)CN(C(=O)NCCc2ccc(S(=O)(=O)NC(=O)N[C@H]3CC[C@H](C)CC3)cc2)C1=O [GLIMEPIRIDE] | 100% |
| Cc1nccn1C[C@H]1CCc2c(c3ccccc3n2C)C1=O [(R)-ONDANSETRON] | 62% |
| CNC(=C[N+](=O)[O-])NCCSCc1csc(CN(C)C)n1 [NIZATIDINE] | 70% |
| CCOC(=O)C1=C(C)NC(C)=C(C(=O)OC)[C@@H]1c1cccc(Cl)c1Cl [(S)-FELODIPINE] | 15% |
| CC[C@H]1OC(=O)[C@H](C)[C@@H](O[C@H]2C[C@@](C)(OC)[C@@H](O)[C@H](C)O2)[C@H](C)[C@@H](O[C@@H]2O[C@H](C)C[C@H](N(C)C)[C@H]2O)[C@](C)(O)C[C@@H](C)C(=O)[C@H](C)[C@@H](O)[C@]1(C)O [ERYTHROMYCIN] | 35% |
| C#C[C@]1(O)CC[C@H]2[C@@H]3CCC4=CC(=O)CC[C@@H]4[C@H]3CC[C@@]21CC [LEVONORGESTREL] | 87% |
| Cc1cccc(C)c1NC(=O)[C@@H](C)N [(R)-TOCAINIDE] | 89% |
| CCOC(=O)[C@H](CCc1ccccc1)N[C@@H](C)C(=O)N1Cc2cc(OC)c(OC)cc2C[C@H]1C(=O)O [MOEXIPRIL] | 13% |
| CCCc1cc(=O)[nH]c(=S)[nH]1 [PROPYLTHIOURACIL] | 78% |
| CCC(=O)c1ccc2c(c1)N(C[C@@H](C)N(C)C)c1ccccc1S2 [(R)-PROPIOMAZINE] | 33% |
| Cc1ccsc1C(=CCCN1CCCC(C(=O)O)C1)c1sccc1C (single isomer, unassigned) [TIAGABINE] | 90% |
| COc1ccc(Cl)cc1C(=O)NCCc1ccc(S(=O)(=O)NC(=O)NC2CCCCC2)cc1 [GLYBURIDE] | 95% |
| Nc1nc(NC2CC2)c2ncn([C@H]3C=C[C@@H](CO)C3)c2n1 (single isomer, unassigned) [ABACAVIR] | 86% |
| CN(C)[C@@H]1C(O)=C(C(N)=O)C(=O)[C@@]2(O)C(O)=C3C(=O)c4c(O)ccc(Cl)c4[C@@](C)(O)[C@H]3C[C@@H]12 [CHLORTETRACYCLINE] | 27.5% |
| COc1ccc([C@@H]2Sc3ccccc3N(CCN(C)C)C(=O)[C@@H]2OC(C)=O)cc1 [DILTIAZEM] | 40% |
| CCN(CC)CC(O)CNC(=O)c1c(OC)c2ccccc2n1-c1ccccc1 (stereo unspecified) [EPROXINDINE] | 70% |
| Cc1cccc(C)c1NC(=O)[C@H](C)N [S-TOCAINIDE] | 89% |
| CN1C(C(=O)Nc2ccccn2)=C(O)c2ccccc2S1(=O)=O [PIROXICAM] | 100% |
| C[C@H](C(=O)O)c1ccc(-c2ccccc2)c(F)c1 [ESFLURBIPROFEN] | 92% |
